Measurements taken from PMC7933358, “Enzymatic spiroketal formation via oxidative rearrangement of pentangular polyketides” (Nature Communications, 2021).

Tests used:
GrhO6 = target: T1, GrhO6 (Streptomyces sp. JP95, UniProt Q8KSX5); assay: identification of flavin bound to purified enzyme by HPLC; type: binding; conditions: co-purified cofactor, tight, non-covalent
T1 construct: full-length gene in pETDuet-1 (EcoRI/PstI), polyhistidine tag kept; E. coli BL21 (DE3)
T1 sequence (Q8KSX5 1-520): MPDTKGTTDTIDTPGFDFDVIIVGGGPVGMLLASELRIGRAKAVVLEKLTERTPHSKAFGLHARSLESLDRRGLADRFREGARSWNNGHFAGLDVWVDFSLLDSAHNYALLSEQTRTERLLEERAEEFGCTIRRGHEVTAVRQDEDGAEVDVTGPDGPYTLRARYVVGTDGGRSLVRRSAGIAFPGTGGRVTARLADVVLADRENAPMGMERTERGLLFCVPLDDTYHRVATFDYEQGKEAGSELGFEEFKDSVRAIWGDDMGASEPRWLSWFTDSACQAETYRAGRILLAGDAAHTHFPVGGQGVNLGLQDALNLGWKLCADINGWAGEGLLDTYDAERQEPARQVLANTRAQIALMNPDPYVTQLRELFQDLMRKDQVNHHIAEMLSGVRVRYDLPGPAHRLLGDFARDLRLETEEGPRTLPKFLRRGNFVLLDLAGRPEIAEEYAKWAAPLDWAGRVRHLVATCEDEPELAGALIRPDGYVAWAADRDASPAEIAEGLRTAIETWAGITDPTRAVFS

GrhO5 = target: T2, GrhO5 (Streptomyces sp. JP95, UniProt Q8KSX7); assay: as above; type: binding; conditions: co-purified cofactor
T2 construct: full-length gene in pMAL-c5x-His (NdeI/PstI), N-terminal MBP tag kept; E. coli BL21 (DE3); amplified from cosmid pMP31
T2 sequence (Q8KSX7 1-537): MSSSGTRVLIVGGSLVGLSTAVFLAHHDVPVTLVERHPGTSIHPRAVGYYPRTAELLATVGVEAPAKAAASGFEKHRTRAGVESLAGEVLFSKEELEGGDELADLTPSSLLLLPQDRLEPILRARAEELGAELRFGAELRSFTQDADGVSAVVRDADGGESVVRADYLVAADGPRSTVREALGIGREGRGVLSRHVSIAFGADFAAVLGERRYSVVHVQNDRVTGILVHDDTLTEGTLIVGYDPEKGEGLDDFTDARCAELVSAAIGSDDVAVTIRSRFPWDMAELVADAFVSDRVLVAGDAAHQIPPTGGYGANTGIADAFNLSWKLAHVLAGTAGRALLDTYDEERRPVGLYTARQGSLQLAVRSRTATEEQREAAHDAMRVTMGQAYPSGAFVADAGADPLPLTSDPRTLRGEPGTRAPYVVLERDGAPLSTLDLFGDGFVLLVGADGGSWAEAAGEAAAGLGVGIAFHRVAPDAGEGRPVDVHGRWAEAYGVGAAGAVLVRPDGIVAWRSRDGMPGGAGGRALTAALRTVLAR

Cc1cc2nc3c(=O)[nH]c(=O)nc-3n(C[C@H](O)[C@H](O)[C@H](O)COP(=O)(O)OP(=O)(O)OC[C@H]3O[C@@H](n4cnc5c(N)ncnc54)[C@H](O)[C@@H]3O)c2cc1C [FAD]
identification of flavin bound to purified enzyme by HPLC (GrhO6): contained a tightly, but non-covalently bound FAD cofactor similar to GrhO5 | identification of flavin bound to purified enzyme by HPLC (GrhO5): bound flavin cofactor that was further determined as flavin adenine dinucleotide
